Source: PubChem BioAssay AID330 (DTP/NCI, 2004)
Several values for one entry are separate records, joined by “and”; a condition that tells them apart may be missing. Identical values can stand only once. Inconclusive results and toxic doses are left out.

System: P388 leukemia ip, CD2F1 mice, survival T/C
Test: NCI In Vivo Anticancer Drug Screen. Data for tumor model P388 Leukemia (intraperitoneal) in CD2F1 (CDF1) mice
Details: endpoint: median survival time, higher = longer survival
Outline: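 Mice carrying the transplanted tumor received test compound or vehicle. Survival was recorded in each group, and the value is the treated-group measurement divided by that of the vehicle-treated control group.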

[1] = dose: 50.0 mg/kg/injection, schedule: Q01DX009 (ip), vehicle: saline
[2] = dose: 100.0 mg/kg/injection, schedule: Q01DX009 (ip), vehicle: saline
[3] = dose: 200.0 mg/kg/injection, schedule: Q01DX009 (ip), vehicle: saline
[4] = dose: 100.0 mg/kg/injection, schedule: Q04DX002 (ip), vehicle: saline
[5] = dose: 25.0 mg/kg/injection, schedule: Q01DX009 (ip), vehicle: saline with Tween-80
[6] = dose: 50.0 mg/kg/injection, schedule: Q01DX009 (ip), vehicle: Klucel (hydroxypropylcellulose) (HPC)
[7] = dose: 100.0 mg/kg/injection, schedule: Q01DX009 (ip), vehicle: Klucel (hydroxypropylcellulose) (HPC)
[8] = dose: 200.0 mg/kg/injection, schedule: Q01DX009 (ip), vehicle: Klucel (hydroxypropylcellulose) (HPC)
[9] = dose: 50.0 mg/kg/injection, schedule: Q01DX005 (ip), vehicle: Klucel (hydroxypropylcellulose) (HPC)
[10] = dose: 400.0 mg/kg/injection, schedule: Q01DX009 (ip), vehicle: saline
[11] = dose: 60.0 mg/kg/injection, schedule: Q01DX005 (ip), vehicle: saline with Tween-80
[12] = dose: 120.0 mg/kg/injection, schedule: Q01DX005 (ip), vehicle: saline with Tween-80
[13] = dose: 240.0 mg/kg/injection, schedule: Q01DX005 (ip), vehicle: saline with Tween-80
[14] = dose: 100.0 mg/kg/injection, schedule: Q01DX005 (ip), vehicle: Klucel (hydroxypropylcellulose) (HPC)
[15] = dose: 200.0 mg/kg/injection, schedule: Q01DX005 (ip), vehicle: Klucel (hydroxypropylcellulose) (HPC)
[16] = dose: 50.0 mg/kg/injection, schedule: Q01DX005 (ip), vehicle: saline with Tween-80
[17] = dose: 100.0 mg/kg/injection, schedule: Q01DX005 (ip), vehicle: saline with Tween-80

## COc1ccc2cc3cnccc3cc2c1OC
dose: 12.5 mg/kg/injection, schedule: Q01DX009 (ip), vehicle: water
  T/C: 99 % of control
dose: 25.0 mg/kg/injection, schedule: Q01DX009 (ip), vehicle: water
  T/C: 97 % of control
dose: 50.0 mg/kg/injection, schedule: Q01DX009 (ip), vehicle: water
  T/C: 94 % of control
dose: 100.0 mg/kg/injection, schedule: Q01DX009 (ip), vehicle: water
  T/C: 102 % of control
dose: 200.0 mg/kg/injection, schedule: Q01DX009 (ip), vehicle: water
  T/C: 96 % of control

## OCC1C=Cc2ccccc21 (centres undefined)
[1]
  T/C: 109 % of control
[2]
  T/C: 107 % of control
[3]
  T/C: 114 % of control

## Clc1nc(-c2ccccc2)nc(-c2ccccc2)n1
[4]
  T/C: 104 % of control
dose: 200.0 mg/kg/injection, schedule: Q04DX002 (ip), vehicle: saline
  T/C: 100 % of control
dose: 400.0 mg/kg/injection, schedule: Q04DX002 (ip), vehicle: saline
  T/C: 109 % of control

## Cc1cc(/C=C\c2ccc3ccccc3[n+]2C)c(O)c2ncccc12
dose: 12.5 mg/kg/injection, schedule: Q01DX009 (ip), vehicle: saline with Tween-80
  T/C: 114 % of control
[5]
  T/C: 106 % of control

## CC(C)CC(NP(=S)(c1ccccc1)c1ccccc1)C(=O)O (centres undefined)
[6]
  T/C: 111 % of control
[7]
  T/C: 105 % of control
[8]
  T/C: 108 % of control

## CN=C(NCCCOC)c1ccc(NC(=O)Nc2ccc(NC(=O)Nc3ccc(C(=NC)NCCCOC)cc3)cc2)cc1
[9]
  T/C: 150 % of control

## N#CCCCCCCCCCCC(=O)O
[2]
  T/C: 93 % of control
[3]
  T/C: 91 % of control
[10]
  T/C: 94 % of control

## COc1ccc(OC)c(NC(=S)NC(=O)c2cccc(Br)c2)c1
[11]
  T/C: 95 % of control
[12]
  T/C: 92 % of control
[13]
  T/C: 89 % of control

## CC(C)(C)OC(=O)N1CC(O)CC1C(=O)O (centres undefined)
dose: 50.0 mg/kg/injection, schedule: Q01DX005 (ip), vehicle: saline
  T/C: 91 % of control
dose: 100.0 mg/kg/injection, schedule: Q01DX005 (ip), vehicle: saline
  T/C: 91 % of control

## O=P(c1ccccc1)(c1ccccc1)c1ccccc1OCc1cccc(COc2ccccc2P(=O)(c2ccccc2)c2ccccc2)n1
[9]
  T/C: 99 % of control
[14]
  T/C: 91 % of control
[15]
  T/C: 97 % of control

## COn1c2ccccc2c2c1cc1ccccc1[n+]2[O-]
dose: 12.5 mg/kg/injection, schedule: Q01DX005 (ip), vehicle: Klucel (hydroxypropylcellulose) (HPC)
  T/C: 113 % of control
dose: 25.0 mg/kg/injection, schedule: Q01DX005 (ip), vehicle: Klucel (hydroxypropylcellulose) (HPC)
  T/C: 111 % of control
[9]
  T/C: 106 % of control
[14]
  T/C: 90 % of control
[15]
  T/C: 94 % of control

## O=S1(=O)C=C(Cl)C1
[16]
  T/C: 110 % of control
[17]
  T/C: 96 % of control

## CCOC(=O)CSc1cc(O)c2ccccc2c1N=Nc1ccc(C(=O)O)cc1
dose: 12.5 mg/kg/injection, schedule: Q01DX005 (ip), vehicle: saline with Tween-80
  T/C: 94 % of control
dose: 25.0 mg/kg/injection, schedule: Q01DX005 (ip), vehicle: saline with Tween-80
  T/C: 88 % of control
[16]
  T/C: 88 % of control
[17]
  T/C: 86 % of control
dose: 200.0 mg/kg/injection, schedule: Q01DX005 (ip), vehicle: saline with Tween-80
  T/C: 93 % of control

## Cc1ccc2c(c1)SP1(c3ccccc3)(Oc3c(c4ccccc4c4ccccc34)O1)S2
[11]
  T/C: 118 % of control
[12]
  T/C: 110 % of control
[13]
  T/C: 114 % of control

## C=C(C#N)C1OC2OC(C)(C)OC2C1OC (centres undefined)
[16]
  T/C: 107 % of control
[17]
  T/C: 118 % of control

## ClC1=C(Cl)N(C2=NCCC2)CC1
dose: 6.25 mg/kg/injection, schedule: Q01DX009 (ip), vehicle: Klucel (hydroxypropylcellulose) (HPC)
  T/C: 96 % of control
dose: 12.5 mg/kg/injection, schedule: Q01DX009 (ip), vehicle: Klucel (hydroxypropylcellulose) (HPC)
  T/C: 99 % of control
dose: 25.0 mg/kg/injection, schedule: Q01DX009 (ip), vehicle: Klucel (hydroxypropylcellulose) (HPC)
  T/C: 99 % of control

## CC(N)C(=O)NC(C(=O)O)C(C)O (centres undefined)
dose: 25.0 mg/kg/injection, schedule: Q01DX009 (ip), vehicle: saline
  T/C: 100 % of control
[1]
  T/C: 102 % of control
[2]
  T/C: 100 % of control
[3]
  T/C: 99 % of control
[10]
  T/C: 102 % of control

## O=C(c1ccccc1)N1CCCSC1=S
[11]
  T/C: 101 % of control
[12]
  T/C: 105 % of control
[13]
  T/C: 104 % of control

## Cn1c(N)c(C(=O)N2CCN(c3ccccc3)CC2)c(=O)n(C)c1=O
[6]
  T/C: 94 % of control
[7]
  T/C: 97 % of control
[8]
  T/C: 91 % of control

## COC1/C=C/OC2(C)Oc3c(C)c(O)c4c(O)c(c(CNCc5ccccc5)c(O)c4c3C2=O)NC(=O)/C(C)=C\C=C\C(C)C(O)C(C)C(O)C(C)C(OC(C)=O)C1C (centres undefined)
dose: 25.0 mg/kg/injection, schedule: Q01DX009 (ip), vehicle: other
  T/C: 92 % of control
dose: 50.0 mg/kg/injection, schedule: Q01DX009 (ip), vehicle: other
  T/C: 91 % of control
dose: 100.0 mg/kg/injection, schedule: Q01DX009 (ip), vehicle: other
  T/C: 88 % of control
dose: 400.0 mg/kg/injection, schedule: Q01DX009 (ip), vehicle: other
  T/C: 89 % of control

## Nc1ccn(C2OC(CO)C(O)C2O)c(=O)n1 (centres undefined)
dose: 2.0 mg/kg/injection, schedule: Q01DX009 (ip), vehicle: saline
  T/C: 160 % of control
dose: 10.0 mg/kg/injection, schedule: Q01DX005 (ip), vehicle: saline
  T/C: 160 % of control
dose: 60.0 mg/kg/injection, schedule: Q01DX005 (ip), vehicle: saline
  T/C: 190 % of control
[4]
  T/C: 120 % of control
dose: 128.0 mg/kg/injection, schedule: Q01DX009 (ip), vehicle: saline
  T/C: 170 % of control and 250 % of control
dose: 200.0 mg/kg/injection, schedule: Q01DX005 (ip), vehicle: saline
  T/C: 200 % of control
[3]
  T/C: 100 % of control
dose: 200.0 mg/kg/injection, schedule: Q04DX003 (ip), vehicle: saline
  T/C: 100 % of control
dose: 324.0 mg/kg/injection, schedule: Q04DX003 (ip), vehicle: saline
  T/C: 190 % of control
dose: 400.0 mg/kg/injection, schedule: Q01DX009 (ip), vehicle: saline with Tween-80
  T/C: 100 % of control
[10]
  T/C: 99 % of control and 110 % of control
dose: 500.0 mg/kg/injection, schedule: Q04DX003 (ip), vehicle: saline
  T/C: 200 % of control
dose: 512.0 mg/kg/injection, schedule: Q01DX009 (ip), vehicle: saline
  T/C: 90 % of control
dose: 800.0 mg/kg/injection, schedule: Q01DX009 (ip), vehicle: saline with Tween-80
  T/C: 99 % of control
dose: 800.0 mg/kg/injection, schedule: Q01DX009 (ip), vehicle: saline
  T/C: 110 % of control and 91 % of control
dose: 900.0 mg/kg/injection, schedule: Q04DX003 (ip), vehicle: saline
  T/C: 210 % of control
dose: 1200.0 mg/kg/injection, schedule: Q01DX009 (ip), vehicle: saline with Tween-80
  T/C: 100 % of control
dose: 1600.0 mg/kg/injection, schedule: Q01DX009 (ip), vehicle: saline
  T/C: 91 % of control
dose: 1600.0 mg/kg/injection, schedule: Q04DX002 (ip), vehicle: saline
  T/C: 120 % of control
dose: 2400.0 mg/kg/injection, schedule: Q01DX009 (ip), vehicle: saline with Tween-80
  T/C: 90 % of control

## C/C=C1/CN2CCc3c([nH]c4ccccc34)C2CC1C(Cc1c[n+]2c(c3[nH]c4ccccc4c13)CC1C(C(=O)OC)=COC(C)C1C2)C(=O)OC (centres undefined)
[5]
  T/C: 91 % of control
dose: 50.0 mg/kg/injection, schedule: Q01DX009 (ip), vehicle: saline with Tween-80
  T/C: 89 % of control
dose: 100.0 mg/kg/injection, schedule: Q01DX009 (ip), vehicle: saline with Tween-80
  T/C: 90 % of control

## Cc1ccc(-c2csc3nc(C)c(CN4CCCCC4)c(=O)n23)cc1
dose: 75.0 mg/kg/injection, schedule: Q04DX002 (ip), vehicle: Klucel (hydroxypropylcellulose) (HPC)
  T/C: 113 % of control
dose: 150.0 mg/kg/injection, schedule: Q04DX002 (ip), vehicle: Klucel (hydroxypropylcellulose) (HPC)
  T/C: 103 % of control
dose: 300.0 mg/kg/injection, schedule: Q04DX002 (ip), vehicle: Klucel (hydroxypropylcellulose) (HPC)
  T/C: 113 % of control
